Test: molar heat capacity at constant pressure
Conditions: 101.33 kPa, Liquid, heat bridge-scanning calorimeter

CCCCn1cc[n+](C)c1.F[P-](F)(F)(F)(F)F [1-butyl-3-methylimidazolium hexafluorophosphate]
Conditions	molar heat capacity at constant pressure [J/K/mol]
300.05 K	409.22
300.17 K	409.79
300.3 K	410.08
300.43 K	410.08
300.55 K	410.36
300.81 K	410.36
300.94 K	410.36
301.07 K	410.64
301.19 K	410.93
301.32 K	410.93
301.45 K	411.21
301.57 K	410.93
301.7 K	411.5
301.83 K	411.5
301.95 K	411.5
302.08 K	411.78
302.35 K	412.06
302.48 K	412.06
302.61 K	412.06
302.73 K	412.35
302.86 K	412.35
302.99 K	412.35
303.12 K	412.35
303.24 K	412.92
303.37 K	412.92
303.63 K	413.2
303.75 K	413.2
303.89 K	413.2
304.02 K	413.2
304.15 K	413.2
304.27 K	413.2
304.4 K	413.49
304.53 K	413.49
304.66 K	413.77
304.78 K	414.05
304.91 K	414.05
305.19 K	414.34
305.31 K	414.34
305.44 K	414.34
305.57 K	414.62
305.7 K	414.91
305.82 K	414.62
305.95 K	414.91
306.08 K	415.19
306.2 K	415.19
306.46 K	415.19
306.59 K	415.19
306.72 K	415.47
306.84 K	415.47
306.97 K	415.47
307.1 K	415.76
307.22 K	415.76
307.35 K	416.33
307.48 K	415.76
307.61 K	416.04
307.73 K	416.04
308.01 K	416.04
308.13 K	416.61
308.26 K	416.33
308.39 K	416.61
308.51 K	416.61
308.64 K	416.9
308.77 K	416.61
308.89 K	416.61
309.02 K	416.9
309.28 K	416.9
309.41 K	417.18
309.53 K	417.46
309.66 K	417.46
309.8 K	417.46
309.93 K	417.46
310.05 K	417.46
310.18 K	417.46
310.31 K	417.75
310.44 K	417.75
310.56 K	418.03
310.84 K	418.32
310.97 K	418.32
311.09 K	418.32
311.22 K	418.32
311.35 K	418.6
311.47 K	418.32
311.6 K	418.6
311.73 K	418.6
311.86 K	418.32
312.11 K	418.6
312.24 K	418.6
312.37 K	418.88
312.49 K	418.88
312.62 K	419.17
312.75 K	419.17
312.87 K	419.45
313 K	419.45
313.13 K	419.45
313.25 K	419.45
313.38 K	419.74
313.65 K	420.02
313.78 K	420.02
313.91 K	420.02
314.04 K	420.02
314.16 K	420.02
314.29 K	420.02
314.42 K	420.31
314.54 K	420.59
314.67 K	420.59
314.93 K	420.59
315.05 K	420.59
315.18 K	420.87
315.31 K	420.87
315.43 K	420.87
315.56 K	420.87
315.7 K	420.87
315.82 K	420.87
315.95 K	421.16
316.08 K	420.87
316.2 K	421.16
316.48 K	421.16
316.6 K	421.44
316.73 K	421.73
316.86 K	421.73
316.98 K	421.73
317.11 K	421.73
317.24 K	421.73
317.36 K	421.73
317.49 K	421.44
317.75 K	422.01
317.88 K	422.01
318 K	422.29
318.13 K	422.29
318.26 K	422.58
318.38 K	422.58
318.51 K	422.58
318.64 K	422.58
318.76 K	422.86
318.89 K	422.58
319.02 K	423.15
319.29 K	422.86
319.42 K	422.86
319.54 K	422.86
319.67 K	422.86
319.8 K	422.86
319.92 K	422.86
320.05 K	423.15
320.18 K	423.15
320.3 K	423.15
320.56 K	423.43
320.69 K	423.43
320.81 K	423.72
320.94 K	423.72
321.06 K	423.72
321.19 K	424
321.32 K	424
321.44 K	424
321.57 K	424
321.71 K	424
321.83 K	424.28
322.11 K	424.28
322.23 K	424.28
322.36 K	424
322.49 K	424
322.61 K	424
322.74 K	424.28
322.87 K	424.28
322.99 K	424.57
323.12 K	424.57
323.38 K	424.57
323.5 K	424.57
323.63 K	424.85
323.76 K	424.85
323.88 K	424.85
324.01 K	425.14
324.14 K	425.14
324.26 K	425.14
324.39 K	425.42
324.51 K	425.42
324.64 K	425.42
324.91 K	425.71
325.04 K	425.71
325.17 K	425.71
325.29 K	425.71
325.42 K	425.71
325.54 K	425.99
325.67 K	425.71
325.8 K	425.99
325.92 K	426.27
326.18 K	426.27
326.31 K	426.27
326.43 K	426.27
326.56 K	426.56
326.68 K	426.56
326.81 K	426.27

Reference: the NIST ThermoML archive (doi:10.1021/je034102r)
